Test results reported in patent US11219588B2, “Use of polyamines in compositions and methods for inducing or promoting skin darkening and regulating melanogenesis” (Agency for Science, Technology and Research, priority 2016, dated 2022).
Where two headings read alike, the source gives them in different places.

Legend:
[1] = test system: co-cultured human keratinocytes and melanocytes; experiment: UV induced pigmentation in co-culture of melanocytes and keratinocytes; assay type: cell-based; details: co-culture under UV induction
Source text: On UV induction, keratinocytes signal to melanocytes to increase melanogenesis. This can be modeled through co-culture of human melanocytes and keratinocytes under UV induction.

[2] = test system: Human melanocytes; experiment: MTT cell viability assay, melanocytes; details: increasing concentrations
Description: (§1) Human keratinocytes and melanocytes were cultured in the presence of increasing concentrations of a polycationic aliphatic amine transport inhibitor, trimer44NMe, or DFMO, and the cell viability was determined by an MTT assay.

[3] = test system: Human keratinocytes; experiment: MTT cell viability assay, keratinocytes; details: increasing concentrations (trimer44NMe up to 5 μM)
Description: as §1

[4] = test system: NHEM-aLP cells; experiment: Putrescine/spermidine treatment of melanocytes and melanin quantification; assay type: cell-based, human
Description: 2×10^5 cells were dissolved in 1 M sodium hydroxide solution and incubated at 80° C. for 2 hours. The absorbance of the cell lysates was measured at 405 nm in a microplate well reader.
2×10^5 cells were dissolved in 1M sodium hydroxide solution and incubated at 80° C. for 2 hours. The absorbance of the cell lysates was measured at 405 nm in a microplate well reader.

[5] = test system: reconstructed epidermis (keratinocytes, melanocytes and fibroblasts); details: 2 mM Putrescine for 14 days, preliminary experiment
Description: The reconstructed epidermis (Denova Sciences) has normal human keratinocytes three dimensionally cultured at an air-liquid interface in a chemically defined medium, in the presence of melanocytes and fibroblasts. They were treated with 2 mM Putrescine for 14 days.

[6] = test system: human abdominal skin biopsies
Source text: The skin was them imaged, followed by sectioning and staining with Fontana Mason stain which stains for melanin.

[7] = test system: primary human melanocytes; details: 3 and 6 days after incubation with putrescine
Source text: FIG. 8 is a dot plot showing the viability of cells untreated, treated for 3 days, or treated for 6 days with putrescine.

[8] = test system: melanogenesis-related genes (TYR, TYRP1, DCT and PMEL) in NHEM-aLP cells; details: 2 mM putrescine for 6 days, relative to RPLP0
Description: Human epidermal melanocytes from adult donor (Hema-LP) were purchased from Life Technologies. The cells were grown in 254 media with HMGS-2 and calcium chloride supplements in a humidified incubator containing 5% CO2 according to the manufacturer's instruction. For putrescine treatments, the cells were plated at an approximate density of 20,000/cm^2 the day before. Fresh media was added along with the respective drugs reconstituted in water (putrescine was purchased from Sigma Aldrich) to the cell cultures on day 0 and day 3 of experiment.
Total RNA was extracted from the cells using RNAeasy (Qiagen) according to manufacturer's instructions. 500 ng of total RNA was converted to complimentary DNA using RevertAid First Strand cDNA synthesis kit (Thermo Scientifc). It was diluted 1:25, and 4 ul of the diluted mixture was used as a template with specific primers using Luminaris Colour HiGreen Hi ROX master mix (Thermo Fisher Scientific) for qRT-PCR on an ABI PRISM 7900 sequence detection system. […] Expression levels detected by qPCR were normalized with ribosomal protein LP0 or L13A.

[9] = test system: melanogenesis related proteins (TYR, TYRP1 and DCT) in NHEM-aLP cells; details: putrescine treated vs control, western blotting
Description: Human epidermal melanocytes from adult donor (Hema-LP) were purchased from Life Technologies. The cells were grown in 254 media with HMGS-2 and calcium chloride supplements in a humidified incubator containing 5% CO2 according to the manufacturer's instruction. For putrescine treatments, the cells were plated at an approximate density of 20,000/cm^2 the day before. Fresh media was added along with the respective drugs reconstituted in water (putrescine was purchased from Sigma Aldrich) to the cell cultures on day 0 and day 3 of experiment. The cells were lysed in RIPA buffer, and concentration of the cell lysate was determined by Pierce BCA Protein Assay Kit (Thermo Scientific). […] The membrane was blocked with 5% skim milk in TBST (0.1% Tween-20 (Sigma-Aldrich) in 1×TBS (0.1 M NaCl, 0.1 M Tris pH 7.4 in ddH2O; purchased from Biopolis Shared Facility) and incubated overnight at 4° C. with respective primary antibodies against TYR (sc-7833), TYRP1 (sc-10443), DCT (sc-10451) from Santa Cruz Biotechnology Inc and RPLP0 (AB126480) from Abcam at a dilution of 1:1000 in blocking buffer. The samples were then incubated with horseradish peroxidase-labeled anti-rabbit, or anti-goat IgG (Santa Cruz Biotechnology, Inc) at a dilution 1:5000 for 1 hour at 4° C. and immunoreactive bands were detected with enhanced chemiluminescent substrate (Thermo Fisher Scientific).

[10] = test system: primary human melanocytes; details: long term culture with putrescine
[11] = test system: cultured human melanocytes; details: melanocytes cultured with putrescine
Description: To confirm that cultured human melanocytes do take up putrescine, the polycationic aliphatic amine content was measured in melanocytes cultured with and without putrescine.

[12] = test system: ATP13A3, SLC11A8 and Caveolin-1 in melanocytes; details: on addition of putrescine
[13] = test system: NHEM-aLP cells; experiment: MTS proliferation and cytotoxicity colorimetric assay
[14] = test system: human primary melanocytes; experiment: Melanin content of melanocytes, putrescine with and without transport inhibitor; assay type: cell-based; details: putrescine plus trimer44NMe vs putrescine alone
Description: To confirm that import of putrescine is required for the pigmentation phenotype observed in melanocytes, human primary melanocytes were cultured with putrescine with and without a polycationic aliphatic amine transport inhibitor (trimer44NMe).

[15] = test system: Human melanocytes
Description: as §1

NCCCC(N)(C(=O)O)C(F)F (racemic) [DFMO, (RS)-2,5-diamino-2-(difluoromethyl)pentanoic acid]
UV induced pigmentation (melanin-containing keratinocytes) [1]: inhibits UV induced pigmentation | sensitivity of melanocyte viability [2]: comparatively insensitive | sensitivity of keratinocyte viability [3]: sensitive

NCCCCN [putrescine, butane-1,4-diamine]
cell morphology / dendrites ([4]; 2 mM putrescine, day 6): larger and flatter and displayed an increased number of dendrites | visual darkening of the melanocytes ([4]; 2 mM putrescine, every 3 days for 6 days): drastic darkening effect | increase in melanin content vs control ([4]; 2 mM putrescine, every 3 days for 6 days, NHEM-aLP cells): 1.5-2 fold | pigmentation levels compared to control [5]: increase in pigmentation levels | darkening of the skin ([6]; incubated ten days): promoted darkening of the skin | melanin stain within melanocytes and neighboring keratinocytes ([6]; ten days, Fontana Mason stain): increase in melanin stain | cell viability [7]: no decrease in viability | mRNA expression levels of TYR, TYRP1, DCT and PMEL [8]: significant increase | protein levels of TYR, TYRP1 and DCT [9]: increased drastically | melanin content on long term culture [10]: sustained increase in melanin content | intracellular levels of putrescine vs non-treated cells [11]: dramatically higher | intracellular levels of spermine [11]: decrease in the levels of spermine | protein level of Caveolin-1 [12]: decreases | protein levels of polyamine transporters ATP13A3 and SLC11A8 [12]: increase | maximum dose up to which NHEM-aLP can survive ([13]; 3 days treatment, MTS): 2 mM | effect on proliferation ([13]; doses between 0.5 mM and 2 mM, 3 days): mild proliferative effect

NCCCCNCCCN [spermidine, N′-(3-aminopropyl)butane-1,4-diamine]
melanin content of the cells, dose dependence ([4]; 0.05 mM and 0.5 mM spermidine, every 3 days for 6 days): dose dependant increase | maximum fold change in melanin content ([4]; 0.5 mM spermidine, every 3 days for 6 days, NHEM-aLP cells): 1.5-2 fold | concentration for similar melanin increase relative to putrescine (2 mM) ([4]; spermidine 0.5 mM vs putrescine 2 mM): 4 times lower

CNCCCCNCCCCNCc1cc(CNCCCCNCCCCNC)cc(CNCCCCNCCCCNC)c1 [trimer44NMe]
effect on putrescine induced pigmentation (melanin content) [14]: blocked the ability of putrescine to promote pigmentation | sensitivity of melanocyte viability [15]: highly sensitive
